Experimental data: ChEMBL document CHEMBL5678818, “Discovery of potent SOS1 inhibitors that block RAS activation via disruption of the RAS-SOS1 interaction” (Proc Natl Acad Sci U S A, 2019)

Tests used:
[1] = target: Cyclin-dependent kinase 7 (Homo sapiens) (UniProt P50613); assay: Inhibition of CDK7 (unknown origin) assessed as residual activity at 100 nM by KINOMEscan analysis relative to control
[2] = target: T1, Discoidin domain-containing receptor 2 (Homo sapiens) (UniProt Q16832); assay: Inhibition of DDR2 (unknown origin) assessed as residual activity at 100 nM by KINOMEscan analysis relative to control
T1 sequence (whole entry): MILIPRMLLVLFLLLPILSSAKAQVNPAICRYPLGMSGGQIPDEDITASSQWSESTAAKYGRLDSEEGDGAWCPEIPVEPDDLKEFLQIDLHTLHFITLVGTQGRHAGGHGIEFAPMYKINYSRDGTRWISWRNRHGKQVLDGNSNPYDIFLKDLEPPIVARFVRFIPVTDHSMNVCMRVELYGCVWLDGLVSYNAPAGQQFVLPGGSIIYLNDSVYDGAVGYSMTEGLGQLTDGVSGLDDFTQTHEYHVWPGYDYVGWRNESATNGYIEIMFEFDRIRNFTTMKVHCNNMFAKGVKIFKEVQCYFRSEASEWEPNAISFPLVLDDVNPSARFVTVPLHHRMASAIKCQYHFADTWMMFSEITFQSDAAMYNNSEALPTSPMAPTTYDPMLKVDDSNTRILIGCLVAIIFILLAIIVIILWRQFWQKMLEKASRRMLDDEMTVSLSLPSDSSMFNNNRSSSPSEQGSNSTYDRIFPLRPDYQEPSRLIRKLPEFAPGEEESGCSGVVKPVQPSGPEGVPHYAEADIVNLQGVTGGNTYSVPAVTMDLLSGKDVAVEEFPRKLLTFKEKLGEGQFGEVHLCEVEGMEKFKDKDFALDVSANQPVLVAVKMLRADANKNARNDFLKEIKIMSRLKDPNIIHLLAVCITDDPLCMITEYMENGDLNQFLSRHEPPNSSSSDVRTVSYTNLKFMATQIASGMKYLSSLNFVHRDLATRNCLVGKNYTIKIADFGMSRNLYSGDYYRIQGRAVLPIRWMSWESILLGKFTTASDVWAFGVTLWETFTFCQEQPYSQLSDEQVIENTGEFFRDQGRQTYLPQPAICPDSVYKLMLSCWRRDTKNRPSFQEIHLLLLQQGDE

[3] = target: T2, Ephrin type-A receptor 6 (Homo sapiens) (UniProt Q9UF33); assay: Inhibition of EPHA6 (unknown origin) assessed as residual activity at 100 nM by KINOMEscan analysis relative to control
T2 sequence (whole entry): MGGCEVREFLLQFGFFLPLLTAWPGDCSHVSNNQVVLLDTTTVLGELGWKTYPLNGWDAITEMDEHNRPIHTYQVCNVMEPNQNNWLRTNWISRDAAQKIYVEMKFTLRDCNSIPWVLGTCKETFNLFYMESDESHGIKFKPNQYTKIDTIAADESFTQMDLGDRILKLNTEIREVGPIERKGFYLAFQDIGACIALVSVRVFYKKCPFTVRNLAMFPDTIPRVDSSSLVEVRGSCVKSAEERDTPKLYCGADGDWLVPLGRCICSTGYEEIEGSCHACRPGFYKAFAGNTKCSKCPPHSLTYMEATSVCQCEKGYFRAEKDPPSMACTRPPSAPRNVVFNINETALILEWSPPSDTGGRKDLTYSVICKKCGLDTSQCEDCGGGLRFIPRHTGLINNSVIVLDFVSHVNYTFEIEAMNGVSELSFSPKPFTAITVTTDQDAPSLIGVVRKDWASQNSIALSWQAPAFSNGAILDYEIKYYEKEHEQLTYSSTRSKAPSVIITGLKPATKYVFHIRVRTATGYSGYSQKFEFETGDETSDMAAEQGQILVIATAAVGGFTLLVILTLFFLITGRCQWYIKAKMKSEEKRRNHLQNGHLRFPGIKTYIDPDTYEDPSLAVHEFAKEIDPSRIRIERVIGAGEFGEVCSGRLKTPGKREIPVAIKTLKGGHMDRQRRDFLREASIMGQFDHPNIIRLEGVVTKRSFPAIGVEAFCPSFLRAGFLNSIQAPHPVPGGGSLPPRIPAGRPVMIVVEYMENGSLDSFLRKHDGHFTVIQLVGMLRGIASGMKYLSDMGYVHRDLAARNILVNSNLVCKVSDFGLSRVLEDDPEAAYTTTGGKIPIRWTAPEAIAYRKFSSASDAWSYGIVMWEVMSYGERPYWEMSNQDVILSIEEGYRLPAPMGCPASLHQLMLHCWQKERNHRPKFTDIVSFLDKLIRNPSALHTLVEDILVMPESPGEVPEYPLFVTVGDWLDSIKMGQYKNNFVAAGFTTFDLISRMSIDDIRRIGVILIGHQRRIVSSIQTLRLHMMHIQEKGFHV

[4] = target: T3, Phosphatidylinositol 4,5-bisphosphate 3-kinase catalytic subunit delta isoform (Homo sapiens) (UniProt O00329); assay: Inhibition of PIK3CD (unknown origin) assessed as residual activity at 100 nM by KINOMEscan analysis relative to control
T3 sequence (whole entry): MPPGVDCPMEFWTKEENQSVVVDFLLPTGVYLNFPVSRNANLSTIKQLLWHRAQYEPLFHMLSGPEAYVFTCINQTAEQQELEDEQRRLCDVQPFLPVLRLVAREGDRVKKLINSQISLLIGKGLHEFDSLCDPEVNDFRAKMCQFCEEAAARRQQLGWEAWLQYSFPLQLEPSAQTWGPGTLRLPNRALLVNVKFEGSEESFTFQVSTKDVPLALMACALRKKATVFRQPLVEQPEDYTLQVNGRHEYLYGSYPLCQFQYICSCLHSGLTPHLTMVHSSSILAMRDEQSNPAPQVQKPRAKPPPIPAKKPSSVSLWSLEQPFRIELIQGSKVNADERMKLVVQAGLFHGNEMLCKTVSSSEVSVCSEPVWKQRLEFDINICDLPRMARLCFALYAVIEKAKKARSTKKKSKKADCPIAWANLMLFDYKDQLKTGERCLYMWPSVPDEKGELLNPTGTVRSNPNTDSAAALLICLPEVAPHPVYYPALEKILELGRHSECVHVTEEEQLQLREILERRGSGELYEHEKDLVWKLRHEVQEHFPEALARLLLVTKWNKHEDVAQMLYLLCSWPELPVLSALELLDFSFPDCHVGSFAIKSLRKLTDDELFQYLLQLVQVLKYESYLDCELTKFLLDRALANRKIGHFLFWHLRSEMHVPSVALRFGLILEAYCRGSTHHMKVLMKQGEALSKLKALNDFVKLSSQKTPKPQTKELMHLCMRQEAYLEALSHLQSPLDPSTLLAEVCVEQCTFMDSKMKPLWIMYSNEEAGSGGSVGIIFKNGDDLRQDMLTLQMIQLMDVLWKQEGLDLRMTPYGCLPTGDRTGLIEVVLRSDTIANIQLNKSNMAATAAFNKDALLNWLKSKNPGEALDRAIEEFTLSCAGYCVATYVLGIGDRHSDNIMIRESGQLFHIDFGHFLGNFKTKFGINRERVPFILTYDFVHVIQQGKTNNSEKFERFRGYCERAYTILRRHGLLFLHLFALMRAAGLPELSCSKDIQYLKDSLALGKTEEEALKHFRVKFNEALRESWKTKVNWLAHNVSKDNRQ

Sequence of Cyclin-dependent kinase 7 (Homo sapiens) (P50613 whole entry, the tested form may be a part): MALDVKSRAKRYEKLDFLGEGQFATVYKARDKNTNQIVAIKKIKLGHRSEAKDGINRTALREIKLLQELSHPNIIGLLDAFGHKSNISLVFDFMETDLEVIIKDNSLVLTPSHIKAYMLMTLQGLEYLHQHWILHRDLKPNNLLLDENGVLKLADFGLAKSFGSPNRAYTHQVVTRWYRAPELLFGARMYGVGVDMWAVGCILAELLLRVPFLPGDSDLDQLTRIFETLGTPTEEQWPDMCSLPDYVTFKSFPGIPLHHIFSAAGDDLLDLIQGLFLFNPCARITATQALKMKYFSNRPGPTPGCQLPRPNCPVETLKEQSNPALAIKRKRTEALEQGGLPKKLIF

## COc1cc2ncnc(N[C@H](C)c3cccc4ccccc34)c2cc1OC
[1]
  Activity: 88%
[2]
  Activity: 67%
[3]
  Activity: 77%
[4]
  Activity: 87%
